How the values were obtained:
Format in all cases: cell-based
MAP2 = MAP2 expression in SH-SY5Y cells (qPCR, Example 22); details: 10% bacterial supernatants 17 h, vs negative control and media control
Experimental: SH-SY5Y were plated in 6 well plates at a density of 0.5×10^6 cells. After 24 h, cells were treated in differentiation medium (growth medium containing 1% FBS) with 10% bacterial supernatants or YCFA+ for 17 h. Cells were collected, and total RNA was isolated according to the RNeasy mini kit protocol (Qiagen). cDNA was made using the High Capacity cDNA reverse transcription kit (Applied Biosystems). Gene expression was measured by qPCR. GAPDH was used as internal control. Fold change was calculated according to the 2^(−ΔΔct) method. Primer sets used are listed as SEQ ID NOs: 2, 3, 4 and 5.

PBMCs = assay: Basic cell phenotyping on PBMCs from healthy donors (flow cytometry)
Experimental: Frozen healthy human PBMCs were purchased from Stem Cells Technologies (Cambridge UK). Briefly cells were thaw and left to rest overnight in full growth media (RPMI 1640 with 10% FBS, 2 mM L. Glutamine, 55 μM 2-Mercapoethanol and 100 U/ml penicillin, 100 μg/ml streptomycin) in CO2 incubator at 37° C. For the experiment cells were plated at a density of 750,000 Cell/well in 48 well plates and treated in full growth media with 10% bacteria supernatants in the presence or absence of 1 ng/ml LPS. Cell culture media was added to untreated wells. Cells were left to rest for 72 h, thereafter cell free supernatants were collected and spun down for 3 minutes at 10,000 g at 4° C. Samples were stored at −80° C. for cytokine analysis.
1.5×10^6 cells per sample were stained with viability fixable dye (Miltenyi) to discriminate between live and dead cells for 10 min at RT. Afterwards the cells were stained with the cocktail of antibodies listed below (Miltenyi) for basic immunophenotyping (CD3/CD4/CD8/CD25/CD127 and CD19) and incubated for 10 min at RT.
Experiments were carried out to measure the percentage of the following cell populations: • CD4+CD3+ cells (markers of CD4 T-helper cells) • CD4+CD25+ cells (markers of CD4+ activated cells) • CD25++[…] cells out of the CD4+ cell population (markers of Tregs cells) • CD8+CD3+ cells (markers of cytotoxic T cells) • CD25+CD8+ cells (markers of CD8+ activated cells) • CD19+CD3− cells (markers of B cells).
The ratio of CD8+/Tregs and the ratio of activated CD8/Treg cells were determined.
Flow cytometry analysis of different cell populations 1.5×10^6 cells per sample were stained with viability fixable dye (Miltenyi) to discriminate between live and dead cells for 10 min at RT. Afterwards the cells were stained with the cocktail of antibodies listed below (Miltenyi) for basic immunophenotyping (CD3/CD4/CD8/CD25/CD127 and CD19) and incubated for 10 min at RT. Cells were then washed and resuspended in PBS and immediately analysed using a FACS Aria II equipped with Blue (488 nm), Red (633 nm) and Violet (405 nm) lasers. FMOs were included throughout all the experiments. For the analysis Flowjo version 10.4.2 software (FlowJo, LLC) was used.

SH-SY5Y cells = tested on: SH-SY5Y cells
Experimental: SH-SY5Y cells were plated at a seeding density of 10,000 cells/well, 24 hrs later cells were treated in 100 ul of 1% FBS growth media with different concentrations (express as percentage v/v) of cell-free bacterial supernatants from stationary phase cultures for 22 h. Thereafter 10 μl of MTT solution was added and cells were incubated in CO2 incubator for 4 h, at the end of this time 100 μl of isopropanol with 0.04 HCL was added to each well. The absorbance was measured at 560 nm wavelength and a reference wavelength of 655 nm. MTT assay kit was purchased from Merck Millipore (Cat n. CT01).

Caspase 3 (Casp3) = assay: Caspase 3 expression in SH-SY5Y cells; details: undifferentiated SH-SY5Y cells, vs control
Text: The inventors measured the change in Casp3 expression in neuroblastoma cells.

[1] = tested on: ERK signalling (phosphorylated ERK1 and 2/total ERK); assay: ERK signalling in HT29 cell line (Western blot); details: HT29 (V600E oncogenic mutation)
Experimental: Following 24 h treatment with the appropriate drugs either in presence of 10% bacterial supernatant or absence (YCFA+), protein extracts were obtained by lysing cells in RIPA buffer (R0278; Sigma Aldrich) supplemented with protease inhibitors (cOmplete Protease Inhibitor Cocktail Tablets; Roche, Switzerland) and 1 mM/L sodium orthovanadate, 0.5 mM/L PMSF. Protein quantification was done by the BCA protein assay. Equal amounts of total protein (20 μg/lane) were then separated by SDS-PAGE on 4-15% gradient gel (BioRad) and transferred to polyvinylidene difluoride (PVDF) membranes (Thermo Fisher Scientific, Loughborough). […]
Proteins of interest were detected with the appropriate HRP-conjugated secondary antibody (1:10,000, Thermo Fisher Scientific, Loughborough), developed with the ECL Western blotting Super Signal PicoPlus substrate (34577; Thermo Fisher Scientific, Loughborough), and visualised in Chemidoc XRS Imager (BioRad).
The effects of the following treatments were assessed on the HT29 colorectal cancer cell line (V600E oncogenic mutation in BRAF): (1) MRx0029; (2) Vemurafenib (VEMU) in YFCA+ medium; (3) VEMU and MRx0029; (4) Azacytidine-C (Aza-c) in YCFA+ medium; (5) Aza-c and MRx0029; (6) VEMU, Aza-c and MRx0029.

GPR109a = GPR109a RNA expression in differentiated Caco-2 cells (qPCR)

**Q.** For Megasphaera massiliensis MRx0029, which MAP2 expression (MAP2) is on record?
**A.** statistically-significant increase of MAP2 expression

**Q.** What about the “percentage of B cells” value (PBMCs; 10% bacteria supernatant, 72 h) of the same substance?
**A.** did not significantly change

**Q.** And the “percentage of CD4+ activated cells” value (PBMCs; 10% bacteria supernatant, 72 h)?
**A.** did not significantly change

**Q.** And the “percentage of CD4 T-helper cells” value (PBMCs; 10% bacteria supernatant, 72 h)?
**A.** did not significantly change

**Q.** What about the “percentage of CD8+ activated cells” value (PBMCs; 10% bacteria supernatant, 72 h) of the same substance?
**A.** did not significantly change

**Q.** And the “percentage of CD25++CD17− cells (Tregs)” value (PBMCs; 10% bacteria supernatant, 72 h)?
**A.** selectively reduced the percentage of Tregs

**Q.** What about the “percentage of cytotoxic T cells” value (PBMCs; 10% bacteria supernatant, 72 h) of the same substance?
**A.** did not significantly change

**Q.** What about the “ratio of CD8+/Tregs” value (PBMCs; vs untreated cells) of the same substance?
**A.** increased the ratio of CD8+/Tregs

**Q.** What about the “ratio of activated CD8/Treg cells” value (PBMCs; vs untreated cells) of the same substance?
**A.** increased

**Q.** And the “reduction of cell viability” value (SH-SY5Y cells)?
**A.** approximately 70%

**Q.** And the cell viability (SH-SY5Y cells; undifferentiated neuroblastoma cells, MRx0029 at 5% or 10%)?
**A.** significant, dose-dependent decrease in cell viability

**Q.** What about the “expression of Casp3” value (Caspase 3 (Casp3)) of the same substance?
**A.** increased the expression of Casp3 threefold

**Q.** What about the ERK signalling [1] of the same substance?
**A.** inhibiting ERK signalling

**Q.** What about the “expression of GPR109a RNA with PMA” value (GPR109a; PMA plus supernatant vs PMA alone (or PMA in YCFA+ medium)) of the same substance?
**A.** greater expression of GPR109a RNA

**Q.** What about the “expression of GPR109a” value (GPR109a; without PMA) of the same substance?
**A.** increased expression of GPR109a

— patent US11419902B2, “Compositions comprising bacterial strains” (4D Pharma Research Limited, priority 2018, dated 2022)
